Source: patent US20030018061A1, “Novel remedies with the use of beta 3 agonist” (priority 2000, published 2003)

Tests used:
[1] = test system: Mice induced with obesity by feeding with a high fat diet; assay: Antiobestic effect (I): body weight of high fat diet obese mice, sibutramine and β3 agonist; assay type: in vivo; conditions: oral, 2 weeks; SIB 1 mg/kg; compound c, d 0.3 mg/kg; e, g 3 mg/kg; h, i 1 mg/kg; alone or combined at same doses
Procedure: (§1) Mice induced with obesity by feeding with a high fat diet for 2 months were orally administered with sibutramine (SIB: 1 mg/kg), a β3 agonist (compound c: 0.3 mg/kg; compound d: 0.3 mg/kg; compound e: 3 mg/kg; compound g: 3 mg/kg; compound h: 1 mg/kg; compound i: 1 mg/kg), or SIB and a β3 agonist (compound c, compound d, compound e, compound g, compound h, and compound i) in combination (each dosage was the same as the aforementioned) for 2 weeks and bred, and body weight was measured.

[2] = test system: Genetically diabetic mice; assay: Antidiabetic effect (III): genetically diabetic mice, rosiglitazone and β3 agonist; assay type: in vivo; conditions: oral, 2 weeks; ROS 1 mg/kg; compound c, d 0.3 mg/kg; e, g 3 mg/kg; h, i 1 mg/kg; alone or combined
Procedure: Genetically diabetic mice were orally administered with rosiglitazone (ROS: 1 mg/kg), a β3 agonist (compound c: 0.3 mg/kg; compound d: 0.3 mg/kg; compound e: 3 mg/kg; compound g: 3 mg/kg; compound h: 1 mg/kg; compound i: 1 mg/kg), or ROS and a β3 agonist (compound c, compound d, compound e, compound g, compound h, and compound i) in combination (each dosage was the same as the aforementioned) for 2 weeks. Blood was collected thereafter, and the amount of glucose contained in blood plasma was measured.

Mice [3] = assay: Antidiabetic effect: plasma glucose in mice, insulin and β3 agonist; assay type: in vivo; conditions: 30 min after dosing; INS 0.2 U/kg intraperitoneal; oral compound a 10 mg/kg; c, d 0.3 mg/kg; e, g 3 mg/kg; h, i 1 mg/kg; alone or combined
Procedure: Mice were administered with insulin (INS: 0.2 U/kg, intraperitoneal injection), a β3 agonist (oral administration of compound a: 10 mg/kg; compound c: 0.3 mg/kg; compound d: 0.3 mg/kg; compound e: 3 mg/kg; compound g: 3 mg/kg; compound h: 1 mg/kg; compound i: 1 mg/kg, respectively), or INS and a β3 agonist (compound a, compound c, compound d, compound e, compound g, compound h, and compound i) in combination (each dosage and administration route was the same as the aforementioned), blood was collected after 30 min, and the amount of glucose contained in blood plasma was measured.

[4] = test system: Mice fasted overnight, glucose loaded; assay: Antidiabetic effect (II): plasma glucose after glucose loading in fasted mice, glibenclamide and β3 agonist; assay type: in vivo; conditions: 1 hour after glucose load (1 g/kg s.c.), oral GLI 10 mg/kg, compound a 10 mg/kg, d 0.3 mg/kg, e, g 3 mg/kg, i 1 mg/kg, vs glucose loading only
Procedure: Mice fasted overnight were orally administered with glibenclamide (GLI: 10 mg/kg), a β3 agonist (compound a: 10 mg/kg; compound c: 0.3 mg/kg; compound d: 0.3 mg/kg; compound e: 3 mg/kg; compound g: 3 mg/kg; compound h: 1 mg/kg; compound i: 1 mg/kg), or GLI and a β3 agonist (compound a, compound c, compound d, compound e, compound g, compound h, and compound i) in combination (each dosage was the same as the aforementioned), and immediately glucose (1 g/kg, subcutaneous injection) was loaded. Blood was collected after 1 hour, and the amount of glucose contained in blood plasma was measured.
In this combined use, hypoglycemia, which is a side effect of glibenclamide, was not observed.

[5] = test system: Mice induced with obesity by feeding with a high fat diet; assay: Antiobestic effect (II): body weight of high fat diet obese mice, orlistat and β3 agonist; assay type: in vivo; conditions: oral, 2 weeks; orlistat 1 mg/kg; compound c, d 0.3 mg/kg; e, g 3 mg/kg; h, i 1 mg/kg; alone or combined at same doses
Procedure: as §1, with “orlistat (1” for “sibutramine (SIB: 1”, “orlistat” for “SIB”

Mice [6] = assay: Antilipemic effect (II): plasma triglyceride in mice, bezafibrate and β3 agonist; assay type: in vivo; conditions: oral, 2 weeks; administered solely: BEZ 3 mg/kg; compound c, d 0.3 mg/kg; e, g 3 mg/kg; h, i 1 mg/kg
Procedure: Mice were orally administered with bezafibrate (BEZ: 3 mg/kg), a β3 agonist (compound c: 0.3 mg/kg; compound d: 0.3 mg/kg; compound e: 3 mg/kg; compound g: 3 mg/kg; compound h: 1 mg/kg; compound i: 1 mg/kg), or BEZ and a β3 agonist (compound c, compound d, compound e, compound g, compound h, and compound i) in combination (each dosage was the same as the aforementioned) for 2 weeks. Blood was collected thereafter, and the amount of triglyceride contained in blood plasma was measured.

[7] = test system: Genetically diabetic mice; assay: Antidiabetic effect (IV): genetically diabetic mice, acarbose and β3 agonist; assay type: in vivo; conditions: oral, 2 weeks; ACA 1 mg/kg; compound c, d 0.3 mg/kg; e, g 3 mg/kg; h, i 1 mg/kg; alone or combined
Procedure: Genetically diabetic mice were orally administered with acarbose (ACA: 1 mg/kg), a β3 agonist (compound c: 0.3 mg/kg; compound d: 0.3 mg/kg; compound e: 3 mg/kg; compound g: 3 mg/kg; compound h: 1 mg/kg; compound i: 1 mg/kg), or ACA and a β3 agonist (compound c, compound d, compound e, compound g, compound h, and compound i) in combination (each dosage was the same as the aforementioned) for 2 weeks. Blood was collected thereafter, and the amount of glucose contained in blood plasma was measured.

[8] = test system: human urinary bladder compression muscle; assay: Relaxation of carbachol-contracted human urinary bladder compression muscle; assay type: cell-based; conditions: for relaxation of bladder compression muscle, combination with propiverine: 10^−6 M propiverine plus compound (a, b, f, g 10^−9 M; c, d 10^−10 M; e, h, i 10^−8 M); for relaxation of bladder compression muscle, combination with propiverine / relaxation of bladder compression muscle, combination with oxybutynin / relaxation of bladder compression muscle, combination with tolterodine: in comparison with each compound alone; for relaxation of bladder compression muscle, combination with oxybutynin: 10^−9 M oxybutynin plus compound (a, b, f, g 10^−9 M; c 10^−10 M; e, h, i 10^−8 M); for relaxation of bladder compression muscle, combination with tolterodine: 10^−9 M tolterodine plus compound (a, b, f, g 10^−9 M; d 10^−10 M; e, h, i 10^−8 M); for concentration at which the bladder compression muscle was significantly relaxed / concentration at which the muscle was not relaxed significantly: contraction provoked by carbachol (0.5×10^−6 M), each compound alone

Compound | body weight [1] | blood glucose level (glucose in blood plasma) [2] | blood glucose level (glucose in blood plasma) (Mice [3]) | blood glucose level (glucose in blood plasma) [4] | body weight [5] | plasma triglyceride level (Mice [6]) | blood glucose level (glucose in blood plasma) [7] | relaxation of bladder compression muscle, combination with propiverine [8] | relaxation of bladder compression muscle, combination with oxybutynin [8] | relaxation of bladder compression muscle, combination with tolterodine [8] | concentration at which the bladder compression muscle was significantly relaxed [8] | concentration at which the muscle was not relaxed significantly [8]
CN(C)S(=O)(=O)Nc1cc([C@@H](O)CNCCOc2ccc3c(c2)oc2ccccc23)ccc1O [compound g, (R)-N′-[5-[2-[2-(dibenzofuran-3-iloxy)ethylamino]-1-hydroxyethyl]-2-hydroxyphenyl]-N,N-dimethyl sulfonyl amide] | almost no change in body weight | no difference in the blood glucose level | no change in blood glucose level | almost no difference in the blood glucose level | almost no change in body weight | no difference | no difference | relaxed significantly | relaxed significantly | relaxed significantly | 10^−7 M | 10^−9 M
CN(C)S(=O)(=O)Nc1cc([C@@H](O)CNCCOc2ccc3c(c2)[nH]c2ccccc23)ccc1O [compound f, (R)-N′-[5-[2-[2-(9H-carbazole-2-iloxy)ethylamino]-1-hydroxyethyl]-2-hydroxyphenyl]-N,N-dimethyl sulfonyl amide] | – | – | – | – | – | – | – | relaxed significantly | relaxed significantly | relaxed significantly | 10^−7 M | 10^−9 M
CS(=O)(=O)Nc1cccc([C@@H](O)CNCCOc2ccc3c(c2)[nH]c2cc(O)ccc23)c1 [compound a, (R)-N-[3-[2-[2-(7-hydroxy-9H-carbazole-2-iloxy)ethylamino]-1-hydroxyethyl]phenyl]methanesulfonamide] | – | – | no change in blood glucose level | almost no difference in the blood glucose level | – | – | – | relaxed significantly | relaxed significantly | relaxed significantly | 10^−7 M | 10^−9 M
CS(=O)(=O)Nc1cc([C@@H](O)CNCCOc2ccc3c(c2)[nH]c2ccccc23)ccc1Br [compound i, (R)-N-[5-[2-[2-(9H-carbazole-2-iloxy)ethylamino]-1-hydroxyethyl]-2-bromophenyl]methanesulfonamide] | almost no change in body weight | no difference in the blood glucose level | no change in blood glucose level | almost no difference in the blood glucose level | almost no change in body weight | no difference | no difference | relaxed significantly | relaxed significantly | relaxed significantly | 10^−6 M | 10^−8 M
CS(=O)(=O)Nc1cc([C@@H](O)CNCCOc2ccc3c(c2)[nH]c2ccccc23)ccc1O [compound d, (R)-N-[5-[2-[2-(9H-carbazole-2-iloxy)ethylamino]-1-hydroxyethyl]-2-hydroxyphenyl]methanesulfonamide] | almost no change in body weight | no difference in the blood glucose level | no change in blood glucose level | almost no difference in the blood glucose level | almost no change in body weight | no difference | no difference | relaxed significantly | relaxed significantly | relaxed significantly | 10^−8 M | 10^−10 M
COc1ccc(Cl)cc1C(=O)NCCc1ccc(S(=O)(=O)NC(=O)NC2CCCCC2)cc1 [GLI, glibenclamide, reference compound] | – | – | – | almost no difference in the blood glucose level | – | – | – | – | – | – | – | –
CC(C)CC(N(C)C)C1(c2ccc(Cl)cc2)CCC1 (stereo not drawn) [SIB, sibutramine, reference compound] | almost no change in body weight | – | – | – | – | – | – | – | – | – | – | –
CS(=O)(=O)Nc1cc([C@@H](O)CNCCOc2ccc3c4c([nH]c3c2)CCCC4)ccc1O [compound b, (R)-N-[5-[2-[2-(5,6,7,8-tetrahydro-9H-carbazole-2-iloxy)ethylamino]-1-hydroxyethyl]-2-hydroxyphenyl]methanesulfonamide] | – | – | – | – | – | – | – | relaxed significantly | relaxed significantly | relaxed significantly | 10^−7 M | 10^−9 M
CCCCCCCCCCC[C@@H](C[C@@H]1OC(=O)[C@H]1CCCCCC)OC(=O)[C@H](CC(C)C)NC=O [orlistat, reference compound] | – | – | – | – | almost no change in body weight | – | – | – | – | – | – | –
insulin [reference compound] | – | – | no change in blood glucose level | – | – | – | – | – | – | – | – | –
